Where “and” joins values, the source holds several entries; their conditions need not be identical. Identical values can stand only once. Inconclusive results and toxic doses are left out. How the source made its calls: active means survival T/C of 150% or more; inactive means T/C below 125% in these data.
System: CD2F1 mice, L1210 leukemia ip, survival T/C
Experiment: NCI In Vivo Anticancer Drug Screen. Data for tumor model L1210 Leukemia (intraperitoneal) in CD2F1 (CDF1) mice
Settings: higher = longer survival
Summary of the method: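 In this screen, transplantable tumors were grown in mice given either the compound or its vehicle. Results were expressed as the treated measurement relative to the control measurement.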

[1] = endpoint: mean survival time, dose: 100.0 mg/kg/injection, schedule: Q04DX003 (ip), vehicle: Klucel (hydroxypropylcellulose) (HPC)
[2] = endpoint: mean survival time, dose: 200.0 mg/kg/injection, schedule: Q04DX003 (ip), vehicle: Klucel (hydroxypropylcellulose) (HPC)
[3] = endpoint: mean survival time, dose: 400.0 mg/kg/injection, schedule: Q04DX003 (ip), vehicle: Klucel (hydroxypropylcellulose) (HPC)
[4] = endpoint: mean survival time, dose: 25.0 mg/kg/injection, schedule: Q04DX003 (ip), vehicle: saline with Tween-80
[5] = endpoint: mean survival time, dose: 100.0 mg/kg/injection, schedule: Q01DX001 (ip), vehicle: saline
[6] = endpoint: mean survival time, dose: 200.0 mg/kg/injection, schedule: Q01DX001 (ip), vehicle: saline
[7] = endpoint: mean survival time, dose: 400.0 mg/kg/injection, schedule: Q01DX001 (ip), vehicle: saline
[8] = endpoint: mean survival time, dose: 100.0 mg/kg/injection, schedule: Q01DX009 (ip), vehicle: saline sonified
[9] = endpoint: mean survival time, dose: 12.5 mg/kg/injection, schedule: Q01DX005 (ip), vehicle: water
[10] = endpoint: mean survival time, dose: 25.0 mg/kg/injection, schedule: Q01DX005 (ip), vehicle: water
[11] = endpoint: mean survival time, dose: 50.0 mg/kg/injection, schedule: Q01DX005 (ip), vehicle: water
[12] = endpoint: mean survival time, dose: 100.0 mg/kg/injection, schedule: Q01DX005 (ip), vehicle: water
[13] = endpoint: mean survival time, dose: 100.0 mg/kg/injection, schedule: Q04DX003 (ip), vehicle: saline with Tween-80
[14] = endpoint: mean survival time, dose: 200.0 mg/kg/injection, schedule: Q04DX003 (ip), vehicle: saline with Tween-80
[15] = endpoint: mean survival time, dose: 400.0 mg/kg/injection, schedule: Q04DX003 (ip), vehicle: saline with Tween-80
[16] = endpoint: mean survival time, dose: 100.0 mg/kg/injection, schedule: Q01DX009 (ip), vehicle: saline with Tween-80
[17] = endpoint: mean survival time, dose: 200.0 mg/kg/injection, schedule: Q01DX009 (ip), vehicle: saline with Tween-80
[18] = endpoint: mean survival time, dose: 400.0 mg/kg/injection, schedule: Q01DX009 (ip), vehicle: saline with Tween-80
[19] = endpoint: mean survival time, dose: 100.0 mg/kg/injection, schedule: Q04DX003 (ip), vehicle: saline
[20] = endpoint: mean survival time, dose: 200.0 mg/kg/injection, schedule: Q04DX003 (ip), vehicle: saline
[21] = endpoint: mean survival time, dose: 400.0 mg/kg/injection, schedule: Q04DX003 (ip), vehicle: saline
[22] = endpoint: mean survival time, dose: 100.0 mg/kg/injection, schedule: Q01DX001 (ip), vehicle: saline with Tween-80
[23] = endpoint: mean survival time, dose: 200.0 mg/kg/injection, schedule: Q01DX001 (ip), vehicle: saline with Tween-80
[24] = endpoint: mean survival time, dose: 50.0 mg/kg/injection, schedule: Q01DX009 (ip), vehicle: saline with Tween-80

Measured: T/C

CC(=O)CC(=O)OCOC(=O)CC(C)=O
inactive: [1] 102 % of control | [2] 106 % of control | [3] 106 % of control

N/C(=N/N=C/c1ccc(O)cc1)N[N+](=O)[O-]
inactive: [1] 92 % of control | [2] 86 % of control | [3] 92 % of control

Cc1ccc(OCCOc2ccc([N+](=O)[O-])cc2)cc1
inactive: endpoint: mean survival time, dose: 200.0 mg/kg/injection, schedule: Q04DX003 (ip), vehicle: other 92 % of control | endpoint: mean survival time, dose: 400.0 mg/kg/injection, schedule: Q04DX003 (ip), vehicle: other 90 % of control

CCOC(=O)C[P+](c1ccccc1)(c1ccccc1)c1ccccc1
inactive: endpoint: mean survival time, dose: 3.13 mg/kg/injection, schedule: Q01DX009 (ip), vehicle: saline sonified 93 % of control | endpoint: mean survival time, dose: 3.13 mg/kg/injection, schedule: Q04DX003 (ip), vehicle: saline with Tween-80 98 % of control | endpoint: mean survival time, dose: 6.25 mg/kg/injection, schedule: Q01DX009 (ip), vehicle: saline sonified 94 % of control | endpoint: mean survival time, dose: 6.25 mg/kg/injection, schedule: Q04DX003 (ip), vehicle: saline with Tween-80 98 % of control | endpoint: mean survival time, dose: 12.5 mg/kg/injection, schedule: Q01DX009 (ip), vehicle: saline sonified 93 % of control | endpoint: mean survival time, dose: 12.5 mg/kg/injection, schedule: Q04DX003 (ip), vehicle: saline with Tween-80 98 % of control | endpoint: mean survival time, dose: 25.0 mg/kg/injection, schedule: Q01DX009 (ip), vehicle: saline sonified 93 % of control | [4] 95 % of control

CC12CCCC=C1N(C=O)c1ccccc12 (stereo unspecified)
inactive: [5] 95 % of control | [6] 100 % of control | [7] 95 % of control

Cn1cc[n+](C)c1C(c1ccccc1)N1CCCCC1 (stereo unspecified)
inactive: endpoint: mean survival time, dose: 5.0 mg/kg/injection, schedule: Q01DX001 (ip), vehicle: saline with Tween-80 106 % of control | endpoint: mean survival time, dose: 5.0 mg/kg/injection, schedule: Q01DX009 (ip), vehicle: saline with Tween-80 94 % of control | endpoint: mean survival time, dose: 10.0 mg/kg/injection, schedule: Q01DX001 (ip), vehicle: saline with Tween-80 96 % of control | endpoint: mean survival time, dose: 10.0 mg/kg/injection, schedule: Q01DX009 (ip), vehicle: saline with Tween-80 100 % of control | endpoint: mean survival time, dose: 20.0 mg/kg/injection, schedule: Q01DX001 (ip), vehicle: saline with Tween-80 102 % of control | endpoint: mean survival time, dose: 20.0 mg/kg/injection, schedule: Q01DX009 (ip), vehicle: saline with Tween-80 98 % of control

CC/C(=C(\c1ccccc1)c1ccc(OCCN(C)C)cc1)c1ccccc1
inactive: endpoint: median survival time, dose: 3.12 mg/kg/injection, schedule: Q01DX009 (ip), vehicle: suspension in saline 101 % of control | endpoint: median survival time, dose: 6.25 mg/kg/injection, schedule: Q01DX009 (ip), vehicle: suspension in saline 101 % of control | endpoint: median survival time, dose: 12.5 mg/kg/injection, schedule: Q01DX009 (ip), vehicle: suspension in saline 100 % of control | endpoint: median survival time, dose: 25.0 mg/kg/injection, schedule: Q01DX009 (ip), vehicle: saline with Tween-80 100 % of control | endpoint: median survival time, dose: 25.0 mg/kg/injection, schedule: Q01DX009 (ip), vehicle: suspension in saline 97 % of control | endpoint: median survival time, dose: 50.0 mg/kg/injection, schedule: Q01DX009 (ip), vehicle: saline with Tween-80 107 % of control

CCOC(=O)Nc1n[nH]c(=S)[nH]c1=O
inactive: endpoint: mean survival time, dose: 100.0 mg/kg/injection, schedule: Q01DX001 (ip), vehicle: carboxymethylcellulose (CMC) 96 % of control | endpoint: mean survival time, dose: 200.0 mg/kg/injection, schedule: Q01DX001 (ip), vehicle: carboxymethylcellulose (CMC) 100 % of control | endpoint: mean survival time, dose: 400.0 mg/kg/injection, schedule: Q01DX001 (ip), vehicle: carboxymethylcellulose (CMC) 96 % of control

CC(C)C(Br)C(N)=O (stereo unspecified)
inactive: [8] 97 % of control | endpoint: mean survival time, dose: 200.0 mg/kg/injection, schedule: Q01DX009 (ip), vehicle: saline sonified 89 % of control | endpoint: mean survival time, dose: 400.0 mg/kg/injection, schedule: Q01DX009 (ip), vehicle: saline sonified 87 % of control

Cn1c(=O)c2[nH]c(Cl)nc2n(C)c1=O
inactive: [9] 92 % of control | [10] 93 % of control | [11] 103 % of control | [12] 87 % of control

CSc1cc(N)nc2c1nnn2C1OC(CO)C(O)C1O (stereo unspecified)
inactive: [9] 94 % of control | [10] 100 % of control | [11] 95 % of control | [12] 90 % of control | endpoint: mean survival time, dose: 200.0 mg/kg/injection, schedule: Q01DX005 (ip), vehicle: water 87 % of control

CCOc1ccncc1[N+](=O)[O-]
inactive: [8] 96 % of control | endpoint: mean survival time, dose: 100.0 mg/kg/injection, schedule: Q04DX003 (ip), vehicle: saline sonified 95 % of control | endpoint: mean survival time, dose: 200.0 mg/kg/injection, schedule: Q04DX003 (ip), vehicle: saline sonified 95 % of control | endpoint: mean survival time, dose: 400.0 mg/kg/injection, schedule: Q04DX003 (ip), vehicle: saline sonified 86 % of control

CCC[CH2][Sn]1([CH2]CCC)[O]C2C(CO)OC(n3c(Br)c(C#N)c4c(N)ncnc43)C2[O]1 (stereo unspecified)
inactive: endpoint: mean survival time, dose: 1.56 mg/kg/injection, schedule: Q01DX005 (ip), vehicle: distilled water + Tween-80 93 % of control | endpoint: mean survival time, dose: 3.13 mg/kg/injection, schedule: Q01DX005 (ip), vehicle: distilled water + Tween-80 98 % of control

c1ccc(CCc2nc3ccccc3o2)cc1
inactive: [13] 98 % of control | [14] 102 % of control | [15] 93 % of control

CN(C)N=Nc1ccc(Cl)cc1
inactive: endpoint: mean survival time, dose: 79.0 mg/kg/injection, schedule: Q01DX009 (ip), vehicle: Klucel (hydroxypropylcellulose) (HPC) 111 % of control | endpoint: mean survival time, dose: 118.0 mg/kg/injection, schedule: Q01DX009 (ip), vehicle: Klucel (hydroxypropylcellulose) (HPC) 119 % of control

O=C(NC(O)C(Cl)(Cl)Cl)c1ccccc1 (stereo unspecified)
inactive: [16] 94 % of control | [13] 107 % of control | [17] 89 % of control | [14] 107 % of control | [18] 91 % of control | [15] 107 % of control

C[N+](C)(C)C(Cc1c[nH]c2ccccc12)C(=O)O (stereo unspecified)
inactive: [5] 91 % of control | [19] 96 % of control and 100 % of control | [6] 101 % of control | [20] 105 % of control and 97 % of control | [7] 95 % of control | [21] 94 % of control and 95 % of control

[Cl][Pt][Cl].c1ccc([AsH](CC[AsH](c2ccccc2)c2ccccc2)c2ccccc2)cc1
inactive: [4] 94 % of control | endpoint: mean survival time, dose: 50.0 mg/kg/injection, schedule: Q04DX003 (ip), vehicle: saline with Tween-80 88 % of control | [13] 96 % of control

CCOc1ccc(-n2c(=O)c(N=Nc3ccccc3)c(O)n(-c3ccc(C)cc3)c2=S)cc1
inactive: [22] 97 % of control | [23] 89 % of control

CC1(C)OC2CC3CC(OC3=O)C2O1 (stereo unspecified)
inactive: [22] 107 % of control | [23] 97 % of control | endpoint: mean survival time, dose: 400.0 mg/kg/injection, schedule: Q01DX001 (ip), vehicle: saline with Tween-80 107 % of control

O=C1C=C(O)c2cc(Br)ccc2C1=O
inactive: [5] 102 % of control | [6] 98 % of control | [7] 98 % of control

CNC(=O)NC1C(CO)OC2OC(C)(C)OC21 (stereo unspecified)
inactive: [19] 96 % of control | [20] 94 % of control | [21] 96 % of control

CNC(=O)NCc1ccc(C(=O)NC(C)C)cc1
inactive: endpoint: mean survival time, dose: 50.0 mg/kg/injection, schedule: Q01DX009 (ip), vehicle: other 100 % of control | endpoint: mean survival time, dose: 100.0 mg/kg/injection, schedule: Q01DX009 (ip), vehicle: other 101 % of control | endpoint: mean survival time, dose: 200.0 mg/kg/injection, schedule: Q01DX009 (ip), vehicle: other 100 % of control | endpoint: mean survival time, dose: 400.0 mg/kg/injection, schedule: Q01DX009 (ip), vehicle: other 89 % of control

C=CCCCCCCCCC(=O)NCc1nc2ccccc2[nH]1
inactive: [16] 91 % of control | [17] 96 % of control | [18] 96 % of control

Cc1cccc(C)c1NC(=S)NNC(=O)c1ccncc1
inactive: endpoint: mean survival time, dose: 25.0 mg/kg/injection, schedule: Q01DX009 (ip), vehicle: saline with Tween-80 101 % of control | [24] 97 % of control | [16] 92 % of control

O=C(O)CCC(=O)CC1CCCCC1
inactive: [24] 98 % of control | [16] 105 % of control | [17] 98 % of control
